US10940188B2, “Compounds and methods for treatment and prevention of Flavivirus infection” (priority 2016, dated 2021)

How the values were obtained:
[1] = test system: ZIKV production from SNB-19 cells; test: Infectious ZIKV production from SNB-19 cells, focus-forming unit assay on Vero cells; assay type: cell-based, Zika virus; settings: PRVABC59-ZIKV, SNB-19 supernatants on Vero cells, ZIKV-ENV stain; read-out: IC50 against ZIKV infection in human glioblastoma cell culture
Experimental: FIGS. 2A-1, 2A-2, 2B-1, 2B-2, 2C-1, 2C-2, 2D-1, 2D-2, 2D-3, 2E-1, 2E-2, and 2F. […] Screening of select compounds for antiviral activity against ZIKV infection was carried out. Glioblastoma SNB-19 cells were treated with indicated compound at 10×AC50 (determined in the primary caspase screen) for 1 hour prior to inoculation with FSS-13025 (at MOI=1). Cells were harvested 24 hours post infection and analyzed by Western blot for ZIKV-NS1 or GAPDH (FIGS. 2A-1 and 2A-2). Titration of PHA-690509 on glioblastoma cells for anti-ZIKV activity. Three strains of virus (FSS-13025, PRVABC59, and MR766; MOI=1) were tested. Shown are sample western blot images (FIG. 2B-1) and ImageJ quantification (FIG. 2B-2). Values represent mean±s.d. (n=3; ***P<0.001; One-way ANOVA). Titration of Emricasan on SNB-19 cells for anti-ZIKV activity was conducted similarly (FIGS. 2C-1 and 2C-2). Values represent mean±s.d. […] Sample western blot (FIG. 2D-2) and ImageJ quantification (FIG. 2D-3) are shown for infection with the PRVABC59 strain (MOI=1). Results for additional strains are shown in FIGS. 6A-F. Values represent mean±s.d. […] The concentration of NS1 in the medium of infected SNB-19 cells collected 24 hours post-infection was quantified by a ZIKV-NS1 ELISA kit (FIGS. 2E-1 and 2E-2). […] Cell culture supernatant was collected 24 hours after infection, and infectious virions were quantified for focus-forming units (FFU) using Vero cells. […] Curves represent best fits for calculating IC50 values, and the insets report the calculated IC50 value for each compound.
FIGS. 18A, 18B, 18C-1, 18C-2, 18D, 18E, 18F, 18G-1, and 18G-2. […] 24 hours post infection, supernatants from SNB-19 cells were titrated onto naïve vero cells plated in a monolayer in 96-well plates for infectious focus-forming unit assay as previously described and focus forming units quantified. […] Immunofluorescence (IF) staining (FIG. 18C-1) and quantification (FIG. 18C-2) of ZIKV positive SNB-19 cells following infection with one of three ZIKV strains and treatment with emetine at 0.01, 0.1, or 1 μM. […]
FIG. 21. […] IC50's calculated using graphpad PRISM software. […]

[2] = test system: hNPCs infected with ZIKV PRVABC59; test: hNPC proliferation after ZIKV infection (EdU); assay type: cell-based, human; settings: PHA-690509 1 μM, Seliciclib 5 μM
Experimental: (§1) FIGS. 17A-17C. Analysis of potential toxicity of CDKis on human astrocyte viability and hNPC proliferation. Human iPSC-derived astrocytes (BJ line) were treated with each indicated compound (cpd) for 25 hours prior to cell viability analysis as measured in relative luciferase units for ATP production. Values represent mean+s.d. (n=3 cultures; ***P<0.001; **P<0.01; One-way ANOVA for comparison with the DMSO treatment). RLU: relative luminescence units. hNPCs were treated with saline, PHA-690509 (PHA, 1 μM) or Seliciclib (5 μM), 1 hour prior to ZIKV PRVABC59 infection (MOI=0.08). At 72 hours post infection, EdU (10 μM) was added to hNPCs and cells were cultured for additional 4 hours prior to fixation and staining for EdU and DAPI. Values represent mean+s.e.m. (n=3 cultures; ***P<0.001; One-way ANOVA for comparison with the mock treatment). Day 20 forebrain-specific brain organoids were treated with PHA-690509 (1 μM) or Seliciclib (5 μM) for 3 days and hNPC proliferation was evaluated by phospho-Histone 3 (PH3) expression within the ventricular zone. Values represent mean+s.e.m. (n=8 organoids; P>0.05; One-way ANOVA for comparison with the mock treatment).

[3] = test system: forebrain-specific brain organoids; test: hNPC proliferation in forebrain organoids (phospho-Histone 3), compound alone; assay type: cell-based, human; settings: 3 days
Experimental: as §1

Row | SMILES | IC50 [1] [µM] | rescue of ZIKV-induced reduction of hNPC proliferation [2] | effect of the treatment itself on hNPC proliferation [3]
1 | CCCCCCCC(=O)Oc1ccc(Cl)cc1C(=O)Nc1ccc([N+](=O)[O-])cc1Cl [DK520] | < 3 | – | –
2 | CC[C@H](CO)Nc1nc(NCc2ccccc2)c2ncn(C(C)C)c2n1 [Seleciclib, Seliciclib] | – | partially rescued ZIKV-induced reduction of hNPC proliferation | minimal effect on hNPC proliferation in brain organoids
